Measurements published in PMC9737981, “Molecular Hybridization Strategy on the Design, Synthesis, and Structural Characterization of Ferrocene-N-acyl Hydrazones as Immunomodulatory Agents” (Molecules, 2022).

How the values were obtained:
[1] = Cytotoxicity to J774 macrophages (Alamar Blue); type: cell-based; conditions: mouse, read-out: CC50 (µM) JJ74
Protocol: (§1) J774 macrophages were seeded into 96-well plates at a cell density of 1 × 10^4 cells/well in a DMEM medium supplemented with 10% fetal bovine serum (FBS; GIBCO) and 50 µg/mL of gentamicin (Life Technologies, Carlsbad, CA, USA) and incubated for 24 h at 37 °C and 5% CO2. After that time, each compound was added in six concentrations (50–1.56 µM), in triplicate, and incubated for 72 h. At the end of treatment, 20 µL/well of Alamar Blue (Invitrogen) was added to the plates for 4 h. […]
(§2) As a positive control, gentian violet was used at concentrations ranging from 0.04 to 10 µM. CC50 values were calculated using data from three independent experiments.
(§3) To determine the cytotoxicity concentration of 50% of J774 macrophages (CC50), we used non-linear regression. One-way analysis of variance and Newman–Keuls multiple comparison tests were employed by using Graph Pad Prism version 8.0.1 (Graph Pad Software; San Diego, CA, USA). Differences were considered significant when the values of p were < 0.05. The data are representative of at least two or three experiments.

[2] = tested on: nitric oxide production; test: Inhibition of nitric oxide (nitrite) production in J774 macrophages stimulated with LPS + IFN-γ (Griess); type: cell-based; conditions: 24 h incubation with compounds and LPS plus IFN-γ
Protocol: (§4) Immortalized J774 macrophages (2 × 10^5 cells/well) or peritoneal macrophages (2 × 10^5 cells/well) were incubated in 96-well plates in a DMEM medium supplemented with 10% FBS and 50 µg/mL of gentamicin, in triplicate, stimulated or not with LPS (500 ng/mL) and IFN-γ (5 ng/mL), and treated or not with different concentrations of the evaluated ferrocenyl-N-acyl hydrazones. The cells were incubated for 4 or 24 h at 37 °C and 5% CO2. Cell-free supernatants were collected after 4 h (for TNFα measurement) and 24 h (for IL-1β, TNFα, and nitrite quantifications), and kept at −80 °C until use.
(§5) The dosage of cytokines IFN-γ, IL-1β, IL-2, IL-4, and TNFα was performed from the supernatant of peritoneal macrophages or splenocytes were determined by enzyme-linked immunosorbent assay (ELISA), using DuoSet kits from R&D Systems, according to the manufacturer’s instructions. Nitric oxide production was estimated in macrophage culture supernatants harvested at 24 h using the Griess method for nitrite quantification.

[3] = tested on: J774 macrophages; test: Cytotoxicity to J774 macrophages (Alamar Blue); type: cell-based; conditions: 72 h, read-out: CC50 (µM) JJ74
Protocol: as §1, §2, §3

[4] = Acute toxicity in mice (single oral dose); type: in vivo, BALB/c mice; conditions: for Changes in the eyes / Changes in the fur / Changes in the skin / Coma / Convulsions / Diarrhea / Lethargy / Salivation / Sleep / Tremors: observed daily for 14 days; for Mortality or signs of toxicity: 2 weeks
Protocol: Male BALB/c mice (6–8 weeks of age; n = 6/group) were randomized into three groups and treated orally with a single dose of SintMed150 (50 or 100 mg/kg) or vehicle (solution containing 30% sorbitol, 10 % Tween 80, and 60% saline). Animals were monitored for signs of general toxicity for 2 weeks after treatment. Observations involved changes in eyes, fur, and skin, and the occurrence of tremors, salivation, convulsions, diarrhea, sleep, lethargy, and coma. Body weights were taken and recorded at days 0, 7, and 14.

[5] = tested on: IFN-γ; test: IFN-γ production by splenocytes stimulated with concanavalin A (ELISA); type: cell-based, BALB/c mice; conditions: 10, 20, 40 µM; Con A 5 µg/mL; 24 h
Protocol: (§6) BALB/c splenocyte suspensions were prepared in a DMEM medium supplemented with FBS and gentamicin. Splenocytes (5 × 10^6 cells/well) were plated in 24-well plates, in triplicate, and stimulated or not with concanavalin A (Con A; 5 µg/mL, Sigma-Aldrich). To evaluate lymphocyte function, splenocytes were activated in the absence or presence of various concentrations of SintMed149 and SintMed150 (10, 20, and 40 µM). After 24 h of treatment, cell-free supernatants were collected and kept at −80 °C until use.
as §5

[6] = tested on: carrageenan-induced acute peritonitis; test: Carrageenan-induced acute peritonitis (neutrophil migration); type: in vivo, BALB/c mice; conditions: 100 mg/kg orally 24 and 1 h before carrageenan; compared to vehicle
Protocol: Next, animals were challenged with a 250 μL injection of carrageenan (1 mg/mL; intraperitoneal route). After 4 h, animals were euthanized and peritoneal exudates were harvested by peritoneal lavage using 2.5 mL of saline solution. Cells were centrifuged at 400× g for 10 min, at 4 °C. The pellet was resuspended in saline (1 mL). Total leukocytes in the peritoneal fluid were determined in a Neubauer chamber after dilution in Trypan blue stain. Differential counting of neutrophils was carried out in rapid panotype-stained cytospin preparations. A differential count of 300 cells was made in a blinded fashion and according to standard morphologic criteria.

[7] = tested on: peritoneal macrophages; test: Cytotoxicity to peritoneal macrophages activated with LPS + IFNγ (Alamar Blue); type: cell-based, BALB/c mice; conditions: all concentrations tested (10, 20, 40 µM)
Protocol: The second set of experiments was performed using peritoneal macrophages activated with LPS (500 ng/mL, Sigma-Aldrich) and IFNγ (5 ng/mL; Sigma-Aldrich).
Peritoneal exudate macrophages were obtained by washing, with a cold DMEM medium, the peritoneal cavity of BALB/c mice 4–5 days after injection of 3% thioglycolate (Sigma-Aldrich) in saline (1.5 mL per mouse). Cells were seeded into 96-well plates at a cell density of 1 × 10^5 cells/well in a DMEM medium supplemented with 10% FBS and 50 µg/mL of gentamicin and incubated for 24 h at 37 °C and 5% CO2. […] At the end of treatment, 20 µL/well of Alamar Blue (Invitrogen) were added to the plates for 10 h. Colorimetric readings were performed at 570 and 600 nm using a SpectraMax 190 Microplate Reader (Molecular Devices, Sunnyvale, CA, USA).

[8] = tested on: IL-2; test: IL-2 production by splenocytes stimulated with concanavalin A (ELISA); type: cell-based, BALB/c mice; conditions: 10, 20, 40 µM; Con A 5 µg/mL; 24 h
Protocol: as §6, §5

[9] = tested on: IL-1β; test: IL-1β production by peritoneal macrophages stimulated with LPS + IFN-γ (ELISA); type: cell-based, BALB/c mice; conditions: 10, 20 and 40 µM, 24 h, p < 0.05
Protocol: as §4, §5

[10] = tested on: TNFα; test: TNFα production by peritoneal macrophages stimulated with LPS + IFN-γ (ELISA); type: cell-based, BALB/c mice; conditions: 10, 20 and 40 µM, 4 h, p < 0.05
Protocol: as §4, §5

[11] = tested on: IL-4; test: IL-4 production by splenocytes stimulated with concanavalin A (ELISA); type: cell-based, BALB/c mice; conditions: 10, 20, 40 µM; Con A 5 µg/mL; 24 h
Protocol: as §6, §5

[12] = tested on: LPS-induced endotoxic shock; test: LPS-induced endotoxin shock (survival); type: in vivo, BALB/c mice
Protocol: Groups of five male BALB/c mice (4 weeks of age) were used for the LPS lethality assays. Mice were treated with different doses of SintMed150 (50 or 100 mg/kg), dexamethasone (25 mg/kg), or vehicle (solution containing 30% sorbitol, 10% Tween 80, and 60% saline), by intraperitoneal (i.p.) route. Ninety minutes later, animals were challenged with 600 µg of LPS (from serotype 0111:B4 Escherichia coli, Sigma-Aldrich) in saline, by i.p. route. The survival rate was then monitored daily during 4 days.

[13] = tested on: nitrite production; test: Nitrite production by activated peritoneal macrophages (Griess); type: cell-based, BALB/c mice; conditions: 10, 20 and 40 µM; LPS + IFN-γ; p < 0.05
Protocol: as §4, §5

Work on CN(C)c1ccc(C(=C2C=CC(=[N+](C)C)C=C2)c2ccc(N(C)C)cc2)cc1 [GV, gentian violet, reference compound] yielded a CC50 at 72 h [1] of 0.8 µM.
With O=C(N/N=C/[c-]1cccc1)c1ccccc1Oc1ccccc1.[Fe+2].c1cc[cH-]c1 [SintMed150, (E)-N′-(Ferrocenylmethylidene)-2-phenoxybenzohydrazide] the “Inhibition of NO (%) Production at 40 μM” value [2] was 74.2 (±0.7) %, the CC50 [3] was greater than 50 µM and the “Changes in the eyes” value ([4]; 50 mg/kg single oral dose) was “No changes”. The “Changes in the fur” value ([4]; 50 mg/kg single oral dose) was “No changes”, the “Changes in the skin” value ([4]; 50 mg/kg single oral dose) was “No changes” and the Coma ([4]; 50 mg/kg single oral dose) was “Absent”. For the same compound, the Convulsions ([4]; 50 mg/kg single oral dose) was “Absent”, the Diarrhea ([4]; 50 mg/kg single oral dose) was “Absent” and the Lethargy ([4]; 50 mg/kg single oral dose) was “Absent”. For the same compound, the Salivation ([4]; 50 mg/kg single oral dose) was “Absent”, the Sleep ([4]; 50 mg/kg single oral dose) was “Usual” and the Tremors ([4]; 50 mg/kg single oral dose) was “Absent”. The Body weight ([4]; 50 mg/kg, day 0) was 20.9 (±1.1), the Body weight ([4]; 50 mg/kg, day 7) was 21.1 (±1.1) and the Body weight ([4]; 50 mg/kg, day 14) was 21.7 (±0.9). The “Changes in the eyes” value ([4]; 100 mg/kg single oral dose) was “No changes”, the “Changes in the fur” value ([4]; 100 mg/kg single oral dose) was “No changes” and the “Changes in the skin” value ([4]; 100 mg/kg single oral dose) was “No changes”. The Coma ([4]; 100 mg/kg single oral dose) was “Absent”, the Convulsions ([4]; 100 mg/kg single oral dose) was “Absent” and the Diarrhea ([4]; 100 mg/kg single oral dose) was “Absent”. For the same compound, the Lethargy ([4]; 100 mg/kg single oral dose) was “Absent”, the Salivation ([4]; 100 mg/kg single oral dose) was “Absent” and the Sleep ([4]; 100 mg/kg single oral dose) was “Usual”. The Tremors ([4]; 100 mg/kg single oral dose) was “Absent”, the Body weight ([4]; 100 mg/kg, day 0) was 20.1 (±0.8) and the Body weight ([4]; 100 mg/kg, day 7) was 20.4 (±0.7). The Body weight ([4]; 100 mg/kg, day 14) was 21.0 (±0.7), the “Mortality or signs of toxicity” value ([4]; single oral dose 50 mg/kg) was “did not cause mortality or the appearance of any sign of toxicity” and the “Mortality or signs of toxicity” value ([4]; single oral dose 100 mg/kg) was “did not cause mortality or the appearance of any sign of toxicity”. The “Body weight compared to vehicle-treated mice” value ([4]; single oral dose 50 or 100 mg/kg) was “no difference in body weight”, the IFN-γ levels [5] was “performed the same feat” and the “Reduction in neutrophil migration” value [6] was 44.6%. For the same compound, the “Cytotoxicity (cell viability) in peritoneal macrophages” value [7] was “not cytotoxic”, the IL-2 levels [8] was “significant and concentration-dependent reduction” and the IL-1β production [9] was “inhibitory effect”. The TNF production [10] was “inhibitory effect”, the IL-4 levels [11] was “did not significantly reduce” and the Survival ([12]; 50 mg/kg, third day after lethal LPS) was “already died”. The Survival ([12]; 100 mg/kg, fourth day after lethal LPS, p < 0.05) was 20%, the “Survival time in comparison with the vehicle group” value ([12]; 50 or 100 mg/kg, lethal LPS) was “longer survival time” and the Nitrite production [13] was “inhibited, in a concentration-dependent manner”.
